# System: Mus musculus
# Experiment: Analgesic activity in mouse assessed as inhibition of formalin-induced pain by measuring time spent licking injected paw for first 5 minutes (early phase) and from 20 to 60 mins (late phase) administered orally 1 hr before formalin injection by formalin test
# Assay type: functional
# Conditions: not given
row,Compound,ED50
1,"O=C([O-])C1CC(C2=CCN(c3ccccc3)C2=O)c2ccc(Cl)cc2N1.[Na+] (single isomer, unassigned)",0.3 mg/kg
2,"O=C([O-])C1CC(C2=CCN(c3ccccc3)C2=O)c2ccc(Cl)cc2N1.[Na+] (single isomer, unassigned; (-))",0.03 mg/kg

# Same assay, conditions: Mus musculus, po; read-out: ED50
row,Compound,ED50
1,"O=C([O-])C1C/C(=C2\CCN(c3ccccc3)C2=O)c2ccc(Cl)cc2N1.[Na+] (single isomer, unassigned; (-))",0.14 mg/kg

# System: not listed separately
# Experiment: Toxicity in orally dosed mouse assessed as induction of untoward effects
# Assay type: organism-based
# Conditions: in vivo, po
row,Compound,Activity
1,O=C([O-])C1C/C(=C2/CCN(c3ccccc3)C2=O)c2c(Cl)cc(Cl)cc2N1.[Na+] (centres undefined),Non-Toxic
2,O=C([O-])C1C/C(=C2/NC(=O)N(c3ccccc3)C2=O)c2ccc(Cl)cc2N1.[Na+] (racemic),Non-Toxic
3,O=C([O-])C1C/C(=C2\CCN(c3cccnc3)C2=O)c2ccc(Cl)cc2N1.[Na+] (racemic),Non-Toxic
4,O=C([O-])C1CC(C2=CCCN(c3ccccc3)C2=O)c2ccc(Cl)cc2N1.[Na+] (racemic),Non-Toxic
5,O=C([O-])C1CC(C2=CCN(c3ccccc3)C2=O)c2ccc(Cl)cc2N1.[Na+] (racemic),Non-Toxic
6,O=C([O-])C1CC(C2=CCN(c3cccnc3)C2=O)c2ccc(Cl)cc2N1.[Na+] (racemic),Non-Toxic
7,CS(=O)(=O)Nc1ccc(N2CC=C(C3CC(C(=O)[O-])Nc4cc(Cl)ccc43)C2=O)cc1.[Na+] (racemic),Non-Toxic
8,CC(=O)Nc1ccc(N2CC=C(C3CC(C(=O)O)Nc4cc(Cl)ccc43)C2=O)cc1 (racemic),Non-Toxic
9,CC(=O)Nc1ccc(N2CC/C(=C3\CC(C(=O)O)Nc4cc(Cl)ccc43)C2=O)cc1 (racemic),Non-Toxic
10,O=C([O-])C1CC(C2=CCN(c3ccccc3)C2=O)c2c(Cl)cc(Cl)cc2N1.[Na+] (racemic),Non-Toxic
11,"O=C([O-])C1C/C(=C2\CCN(c3ccccc3)C2=O)c2ccc(Cl)cc2N1.[Na+] (single isomer, unassigned; (-))",Non-Toxic
